Columns and labels:
[1] = Aroma extract dilution analysis (AEDA) by GC-O of aroma isolates of fresh mango cultivars; conditions: GC-O on FFAP column; for FD factor M: Malindi (M) mango cultivar aroma isolate; for FD factor RS: Royal Special (RS) mango cultivar aroma isolate; for FD factor WA: White Alfonso (WA) mango cultivar aroma isolate; for FD factor H: Haden (H) mango cultivar aroma isolate, highest dilution at which the aroma was detectable; for FD factor PS: Praya Sowoy (PS) mango cultivar aroma isolate
Excerpt: The presently disclosed subject matter was developed in part by analytical analyses on regional mangos performed to avoid overlooking any key compounds that can greatly influence the natural flavorings. To overcome the lack of distinct cultivar flavors available for true-fruit mango tastes, the presently disclosed subject matter has created a flavor system using aroma extract dilution analysis (AEDA) on fresh fruit from various mango cultivars. In addition, sensory experiments with the flavor compositions of the formulas given together with omission experiments were used to determine the relative importance of some of the components in the manufactured flavorings. A Flavor Dilution (FD)-chromatogram of the odorants was obtained for the odorants perceived in aroma extracts of various mango samples. FD-factors reflect the highest dilution at which a substance is still smelled and these are typically determined by AEDA.
AEDA is known as a powerful screening method used for the detection of aroma compounds, which combines a quantitative gas chromatography olfactometry (GCO) procedure for determining the potency of odorants in food. Using FD values from the AEDA tests, a base flavor system using compounds found in all the cultivars was created. Next, cultivars were characterized by their differences and cultivar components were designed by combining compounds identified as contributing to the distinct differences. The base and cultivar flavors were confirmed by creating a flavor system and testing the flavor system in a model confectionery product.
Volatile compounds are extracted from the fruit samples. For example, compounds are extracted with diethyl ether and an aroma isolate was prepared via high vacuum distillation. The aroma isolate was then serially diluted to a range of dilutions from 2 to 1,024. The various dilutions are then analyzed by GCO.
The FD factor data depict the highest dilution at which an odorant is still detectable by GCO. FD factors are relative measurements. The measurement is the ratio of the initial concentration to its most dilute extraction. Such measurements are proportional to a compounds odor activity value (OAV), which is the ratio of the concentration to an odor threshold in the air.
Fresh ripe mangos were peeled, the seed was removed, and the flesh was cut into small 4 cm^3 sections. The sections were immediately frozen in liquid nitrogen, ground into a fine powder with a laboratory mill and sequentially extracted with freshly distilled diethyl ether (1×100 mL; 1×50 mL) on an autoshaker at room temperature for 10 minutes. After centrifugation (5000 rpm for 5 minutes), the supernatants were combined and the residue was discarded. The organic layer was then separated in a separatory funnel and the aqueous layer was discarded. The ether extract (total volume: 150 mL) was then subjected to high-vacuum distillation using the SAFE technique (Engel, W.; Bahr, W.; Schieberle, P., Solvent assisted flavour evaporation—a new and versatile technique for the careful and direct isolation of aroma compounds from complex food matrices. European Food Research and Technology 1999, 209, 237-241.). The distillation apparatus was thermostated at 40° C. and kept under high vacuum (10-5 mbar). The sample was dropped into the extraction flask of the apparatus over 40 minutes, after which the extraction was continued for an additional 30 minutes. At the completion of the extraction time, the vacuum was broken and the collection flask was removed. The sample was thawed at room temperature and dried over anhydrous sodium sulfate. The sample was then concentrated to approximately 2 ml using a Vigreux column (50×1 cm) held at 50° C. and finally concentrated (total volume: 200 uL) under a gentle stream of nitrogen. The aroma quality of the isolate was then evaluated to ensure that it closely matched the odor quality of the fresh ripe mango flesh.
An Agilent 6890 series GC system was used for GC-O analysis. […]

[2] = Odor threshold levels (recognition and detection) of odorants; conditions: Tables 1-5, relative to the other odorants of the same group
Excerpt: As used herein, “threshold level” relates to an amount at which a flavor is detected or recognized. A detection level is the point at which a taste is detected as compared to a control such as water. A recognition level is the point at which a specific taste is recognizable.
Additional measurements can be used as a proxy for potency, whereby similar calculations can be configured to prepare a base blend. For example, threshold levels can be used to determine a reference point for potency. For example, threshold levels include detection levels, where a taste is detected in comparison to a control, for example water. Threshold levels also include recognition levels whereby a taste is specifically recognized, which is generally a higher level than a mere detection level. The threshold levels achieve an equivalent organoleptic effect whereby a specific target is either detectable or recognized.
By way of example, the following table provides representative threshold levels in ppb for both detection and recognition levels.
The specific odorant listed has been categorized one of the highest potency odorants within the noted class. As such, the highest potency relates to the littlest amount to be used in the composition. Therefore, relative potencies are then computed by orders of magnitude as detailed in the above Table. Additional threshold levels are discussed below in Example 4.
The following Example provides odor thresholds of weakest and strongest odorants with the different aroma groups, as well as alternative compounds for the first tier of odorants. These odorants are representative in defining the unique sensory attributes of the aroma isolates of the different cultivars.

[3] = cited from earlier work; for recognition (ppb) / detection (ppb): Table 8, representative threshold level; for recognition (ppb): point at which a specific taste is recognizable; for recog. ppb: Table 21, odor thresholds from literature (footnotes a-g); for detection (ppb): point at which a taste is detected compared to a control such as water

Row | Compound | FD factor WA [1] | FD factor H [1] | recog. ppb [3] | FD factor PS [1] | other results
1 | C=CC=CC=CCC=CCC [1,3,5,8-undecatetraene] | 128 | – | – | – | FD factor M [1]: 512; FD factor RS [1]: 512
2 | C=C/C=C/C=C\CCCCC [1-(E,Z)-3,5-undecatriene] | 512 | 512 | 0.003 ppb | – | potency within odorant group (footnote *) [2]: *Most potent; recognition (ppb) [3]: 0.003 ppb
3 | CC1=CCC(C(C)(C)S)CC1 (stereo not drawn) [1-p-menthene-8-thiol] | – | – | 0.0001 ppb | – | –
4 | CC(=O)C(C)=O [2,3-butandione] | – | – | 2.9 ppb | 32 | –
5 | CCc1ncc(C)nc1CC [2,3-diethyl-5 methyl pyrazine] | – | – | – | – | FD factor RS [1]: 128
6 | CC(=O)C1=NCCC1 [2-acetyl-1-pyrroline] | – | 512 | – | 128 | FD factor M [1]: 512
7 | OCCc1ccccc1 [2-phenylethanol] | – | 128 | – | – | –
8 | CSCCC=O [3-(methylthio)-propanal] | 32 | 512 | – | – | –
9 | CC1=C(O)C(=O)OC1C (stereo not drawn) [3-hydroxy-4,5-dimethyl-2(5H)-furanone] | – | – | 1.1 ppb | – | potency within odorant group (footnote *) [2]: *Most potent; recognition (ppb) [3]: 1.1 ppb; detection (ppb) [3]: 0.49 ppb
10 | CCCCCC(=O)C(C)C(C)=O (stereo not drawn) [3-methyl-2,4-nonandione] | – | – | – | 128 | –
11 | CC1=C(O)C(=O)C(C)O1 (stereo not drawn) [4-hydroxy-2,5-dimethyl-3(2H)-furanone] | 2048 | 2048 | 160 ppb | 2048 | FD factor M [1]: 2048; FD factor RS [1]: 2048
12 | CC(=O)CC(C)(C)S [4-mercapto-4-methyl-2-pentanone] | – | – | 0.0001 ppb | – | recognition (ppb) [3]: 0.0001 ppb
13 | COC1=C(C)OC(C)C1=O (stereo not drawn) [4-methoxy-2,5-dimethyl-3(2H)-furanone] | – | – | 3400 ppb | – | FD factor RS [1]: 128
14 | CCCCCC/C=C/C=O [(E)-2-nonenal] | – | – | 0.4 ppb | 128 | –
15 | CC/C=C/CC=O [(E)-3-hexenal] | – | – | 160 ppb | 512 | –
16 | CC/C=C\CC/C=C/C=O [(E,Z)-2,6-nonadienal] | – | – | 0.0091 ppb | 128 | potency within odorant group (footnote *) [2]: *Most potent; recognition (ppb) [3]: 0.0091 ppb; detection (ppb) [3]: 0.0045 ppb

Row | Compound | FD factor WA [1] | FD factor H [1] | recog. ppb [3] | FD factor PS [1] | other results
17 | CC/C=C\CC=O [(Z)-3-hexenal] | – | – | 0.21 ppb | 128 | –
18 | CCCC(=O)O [butanoic acid] | – | – | 7700 ppb | 128 | –
19 | CC(=O)CCC1=C(C)CCCC1(C)C [dihydro-β-ionone] | – | – | – | – | FD factor RS [1]: 128
20 | CCCC(=O)OCC [ethyl butanoate] | 128 | 2048 | 2.4 ppb | 128 | FD factor RS [1]: 32
21 | CCOC(=O)C(C)CC (stereo not drawn) [ethyl-2-methybutanoate] | – | 512 | 0.063 ppb | – | potency within odorant group (footnote *) [2]: *Most potent; recognition (ppb) [3]: 0.063 ppb; detection (ppb) [3]: 0.013 ppb
22 | CCOC(=O)C(C)C [ethyl-2-methypropanoate] | – | 512 | 0.22 ppb | – | –
23 | CCOC(=O)CC(C)C [ethyl-3-methylbutanoate] | – | 2048 | 0.11 ppb | – | –
24 | C=CC(=C)CCC=C(C)C [myrcene] | 128 | – | 4.9 ppb | – | FD factor M [1]: 128; recognition (ppb) [3]: 4.9 ppb; detection (ppb) [3]: 1.2 ppb
25 | C=C/C(C)=C/CC=C(C)C [β-(E)-ocimene] | 128 | – | 34 ppb | – | –
26 | C=C/C(C)=C\CC=C(C)C [β-(Z)-ocimene] | 512 | – | 34 ppb | – | –
27 | CC(=O)/C=C/C1=C(C)CCCC1(C)C [β-ionone] | 512 | – | 8.4 ppb | – | FD factor M [1]: 32; FD factor RS [1]: 512; recognition (ppb) [3]: 8.4 ppb; detection (ppb) [3]: 3.5 ppb
28 | CCCCCCC1CCC(=O)O1 (stereo not drawn) [γ-decalactone] | – | – | 2.6 ppb | – | –
29 | CCCCC1CCC(=O)O1 (stereo not drawn) [γ-octalactone] | 512 | 512 | 24 ppb | 128 | FD factor M [1]: 512; FD factor RS [1]: 512; potency within odorant group (footnote *) [2]: *Most potent; recognition (ppb) [3]: 24 ppb; detection (ppb) [3]: 6.5 ppb
30 | CCCCCC1CCCC(=O)O1 (stereo not drawn) [δ-decalactone] | – | – | 51 ppb | – | –
31 | CCCC1CCCC(=O)O1 (stereo not drawn) [δ-octalactone] | 128 | 512 | – | – | FD factor M [1]: 128
